pIC50: −log10 of the molar value.
What was measured:
[1] = system: HL-60 cells; assay: XTT cell proliferation assay, HL-60; type: cell-based; conditions: Homo sapiens; leukemia cell line HL-60, XTT assay after 24 h; read-out: IC50, inhibition of growth of HL-60 cells
Method: (§1) HEK293 cells were cultured in […] Dulbecco’s modified Eagle’s medium (Biowest) containing 10% fetal bovine serum, 2 mM glutamine, non-essential amino acids, 4.5 mg mL^−1 glucose, and the antibiotics penicillin and streptomycin. HL-60 cells were cultured in RPMI 1640 w/o L-Glutamine supplemented with 10% fetal bovine serum, 2 mM glutamine, and the antibiotics penicillin and streptomycin. Cells were grown at 37 °C in a humidified atmosphere with 5% CO2.
(§2) Cytotoxicity was measured by the XTT assay at 450 nm as described by the manufacturer (Roche Diagnostics, Basel, Switzerland). Phosphate-buffered saline was used as negative control. For HL-60 and HEK293 cells, 1.2 × 10^5 cells in growth media were transferred to each well of a 96-well flat-bottom plate. Subsequently, modified nucleosides were added in varying concentrations. XTT assay was performed after 24 h for HL-60 and HEK293 cells, as described previously. At least three replicates for each nucleoside concentration were performed. All experiments were conducted for a minimum of three independent experiments.

[2] = system: HEK293 cells; assay: XTT cell proliferation assay, control cell line HEK293; type: cell-based; conditions: control cell line HEK293, XTT assay after 24 h
Method: as §1, §2

With `Nc1nc(Cl)nc2c1ncn2[C@H]1C[C@H](O)[C@@H](CO)O1` [cladribine] the pIC50 [1] was 6.66 and the “inhibition of growth of the control cell line HEK293” value [2] was “No unspecific growth inhibition”.
